Series [1] is described as follows: MTT antiproliferative assay, HepG-2. It is filed as cell-based. Conditions: human, HepG-2 hepatocellular carcinoma cells, HepG-2, MTT, read-out: IC50 (cytotoxicity). The procedure: (§1) DOX was used as standard (920 µM).
Series [2] in a line: MTT antiproliferative assay, HCT-116. Type of series: cell-based. Conditions: human, HCT-116 colorectal carcinoma cells, HCT-116, MTT, read-out: IC50 (cytotoxicity). The procedure:
as §1
Background: Tetrazolium dyes change colour on reduction, which living cells bring about.

A further series deals with T1, TOP-2 enzyme (Homo sapiens, UniProt P11388).
T1 construct: purchased TOPOGEN, CO, USA TG1001
The series is described as follows: Topoisomerase II inhibitory assay (TopoGEN plasmid-based kit, DNA decatenation). It is filed as biochemical. Conditions: decatenation of DNA by TOP-2; read-out: IC50 (TOP-2 inhibition). The procedure:
SP, RO, AZ, CL, and ER (as ethyl succinate) were provided from NODQCAR at a purity > 99.87%. Human mammary tumours, hepatocellular carcinoma (HepG2), and colorectal cancer (HCT-116) cell lines were obtained from VACSERA; Egypt. RPMI 1640 doped with 10% FBS was provided from VACSERA; Egypt. The inhibitory potential against TOP-2 was assessed by the Topo GEN assay kit (TOPOGEN, CO, USA).
Results were reported as IC50 and compared to DOX.

The nature of the next series: in vitro. Conditions: human, MCF-7 breast cancer cells.

T1 sequence (P11388 whole entry): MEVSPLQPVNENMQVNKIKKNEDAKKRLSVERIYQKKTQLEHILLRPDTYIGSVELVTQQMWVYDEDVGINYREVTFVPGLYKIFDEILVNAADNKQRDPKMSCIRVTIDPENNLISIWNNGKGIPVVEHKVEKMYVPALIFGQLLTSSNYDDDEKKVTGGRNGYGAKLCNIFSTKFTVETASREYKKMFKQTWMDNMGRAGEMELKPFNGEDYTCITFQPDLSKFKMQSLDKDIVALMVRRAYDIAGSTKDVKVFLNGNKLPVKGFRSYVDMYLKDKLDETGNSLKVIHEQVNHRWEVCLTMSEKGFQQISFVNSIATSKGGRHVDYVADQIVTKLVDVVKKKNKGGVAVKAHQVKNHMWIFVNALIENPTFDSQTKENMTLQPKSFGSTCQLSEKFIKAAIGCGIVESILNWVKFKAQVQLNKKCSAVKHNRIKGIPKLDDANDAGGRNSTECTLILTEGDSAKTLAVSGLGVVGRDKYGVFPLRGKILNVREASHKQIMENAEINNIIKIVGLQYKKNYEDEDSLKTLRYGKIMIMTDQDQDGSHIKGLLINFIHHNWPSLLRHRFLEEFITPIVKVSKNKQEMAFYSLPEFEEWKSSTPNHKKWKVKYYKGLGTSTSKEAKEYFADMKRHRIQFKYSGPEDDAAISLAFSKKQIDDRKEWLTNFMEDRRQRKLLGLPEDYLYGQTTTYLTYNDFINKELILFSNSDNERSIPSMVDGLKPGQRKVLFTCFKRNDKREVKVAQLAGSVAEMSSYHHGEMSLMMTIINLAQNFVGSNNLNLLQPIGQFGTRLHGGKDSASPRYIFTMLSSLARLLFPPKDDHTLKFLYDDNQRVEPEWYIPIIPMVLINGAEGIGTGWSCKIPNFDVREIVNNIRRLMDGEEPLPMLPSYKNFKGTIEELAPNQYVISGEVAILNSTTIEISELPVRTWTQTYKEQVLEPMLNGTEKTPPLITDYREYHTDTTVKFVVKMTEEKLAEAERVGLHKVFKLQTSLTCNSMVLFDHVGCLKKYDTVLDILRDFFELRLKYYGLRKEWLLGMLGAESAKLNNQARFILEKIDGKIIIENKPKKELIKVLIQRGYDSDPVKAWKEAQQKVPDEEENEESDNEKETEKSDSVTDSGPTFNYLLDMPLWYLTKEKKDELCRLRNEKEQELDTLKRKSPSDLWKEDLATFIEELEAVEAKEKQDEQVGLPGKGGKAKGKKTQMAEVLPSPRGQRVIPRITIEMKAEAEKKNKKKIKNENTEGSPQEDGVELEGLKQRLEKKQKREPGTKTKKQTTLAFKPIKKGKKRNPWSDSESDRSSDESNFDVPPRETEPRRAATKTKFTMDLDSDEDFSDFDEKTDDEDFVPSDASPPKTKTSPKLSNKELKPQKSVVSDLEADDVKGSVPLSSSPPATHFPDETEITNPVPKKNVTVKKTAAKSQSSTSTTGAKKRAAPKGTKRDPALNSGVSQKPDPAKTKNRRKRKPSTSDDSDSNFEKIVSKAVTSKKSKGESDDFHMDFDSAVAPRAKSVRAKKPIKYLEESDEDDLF

One may read the IC50 as the point on the concentration scale where inhibition reaches its midpoint. For the compound `CC[C@H]1OC(=O)[C@H](C)[C@@H](O[C@H]2C[C@@](C)(OC)[C@@H](O)[C@H](C)O2)[C@H](C)[C@@H](O[C@@H]2O[C@H](C)C[C@H](N(C)C)[C@H]2O)[C@](C)(O)C[C@@H](C)CN(C)[C@H](C)[C@@H](O)[C@]1(C)O` [AZ, azithromycin], the results for the IC50 at 24 h in series [1] and in series [2] were 32 ± 0.18 µM and 2.08 ± 0.05 µM, respectively. On TOP-2 enzyme, the IC50 is 36.1 ± 2.11 µM.
With `CC[C@H]1OC(=O)[C@H](C)[C@@H](O[C@H]2C[C@@](C)(OC)[C@@H](O)[C@H](C)O2)[C@H](C)[C@@H](O[C@@H]2O[C@H](C)C[C@H](N(C)C)[C@H]2O)[C@](C)(OC)C[C@@H](C)C(=O)[C@H](C)[C@@H](O)[C@]1(C)O` [CL, clarithromycin], the results for the IC50 at 24 h (in series [1]; in series [2]; in “in vitro”) were 14.8 ± 0.15 µM, 2.74 ± 0.42 µM and 1.39 ± 0.15 µM, respectively. Besides, the IC50 at TOP-2 enzyme amounted to 25.6 ± 1.08 µM.
The like results for `COc1cccc2c1C(=O)c1c(O)c3c(c(O)c1C2=O)C[C@@](O)(C(=O)CO)C[C@@H]3O[C@H]1C[C@H](N)[C@H](O)[C@H](C)O1` [DOX, doxorubicin] were, in that order, 3.6 ± 0.07 µM, 1.6 ± 0.05 µM, 0.49 ± 0.1 µM and 6.37 ± 0.38 µM.
As to `CC[C@H]1OC(=O)[C@H](C)[C@@H](O[C@H]2C[C@@](C)(OC)[C@@H](O)[C@H](C)O2)[C@H](C)[C@@H](O[C@@H]2O[C@H](C)C[C@H](N(C)C)[C@H]2O)[C@](C)(O)C[C@@H](C)C(=O)[C@H](C)[C@@H](O)[C@]1(C)O` [ER, erythromycin], the IC50 on TOP-2 enzyme came out at 11.6 ± 0.7 µM.
Turning to `CC[C@H]1OC(=O)[C@H](C)[C@@H](O[C@H]2C[C@@](C)(OC)[C@@H](O)[C@H](C)O2)[C@H](C)[C@@H](O[C@@H]2O[C@H](C)C[C@H](N(C)C)[C@H]2O)[C@](C)(O)C[C@@H](C)/C(=N\OCOCCOC)[C@H](C)[C@@H](O)[C@]1(C)O` [RO, roxithromycin], the values for the IC50 at 24 h (in series [1]; in series [2]; in “in vitro”) were 32 ± 0.18 µM, 0.097 ± 0.024 µM and 7.9 ± 0.79 µM, respectively. Further, at TOP-2 enzyme, the IC50 worked out at 13.1 ± 0.77 µM.
The like results for `COC1C(O)CC(=O)OC(C)CC=CC=CC(OC2CCC(N(C)C)C(C)O2)C(C)CC(CC=O)C1OC1OC(C)C(OC2CC(C)(O)C(O)C(C)O2)C(N(C)C)C1O` (centres unmarked) [SP, spiramycin] were, in that order, 20.9 ± 1.33 µM, 12.2 ± 3.27 µM, 0.67 ± 0.43 µM and 21.2 ± 1.19 µM.

The values above are taken from paper PMC9881673, “Investigating the potential anticancer activities of antibiotics as topoisomerase II inhibitors and DNA intercalators: in vitro, molecular docking, molecular dynamics, and SAR studies” (Journal of Enzyme Inhibition and Medicinal Chemistry, 2023).
